System: SLC5A8 silenced colon cancer cell lines
Experiment: RT-PCR detection of SLC5A8 transcript after 5-azacytidine treatment
Type: cell-based, human
Details: 5-azacytidine 1.5 μg/ml, 24 h on day 2 and day 5
Method: Amplification and Sequencing of SLC5A8. The primers used for RT-PCR assay of a SLC5A8 fragment are 5′-TCCGAGGTCTACCGTTTTG-3′, and 5′-GGGCA GGGGC ATAAA TAAC-3′. The PCR parameters were 35 cycles of 95° C. (45s), 54° C. (45s), 72° C. (60s), 72° C. (10 min), and 4° C. to cool. The full length SLC5A8 ORF was amplified using primers: 5′TCCGGGATAAGAAGTGCG-3′ and 5′-[…]-3′. GC-rich cDNA polymerase kit (Clonetech) was used and PCR parameters were 35 cycles of 95° C. (45s), 62° C. (45s), 72° C. (90s), 72° C. (10 min), and 4° C. to cool. Sequencing primers were: 5′-TTTGT GGTGGTCA TCAGCG-3′,5′-GGGCAGGGGCATAAATAAC-3′,5′-AGGCTGTG GTGATGCAAGGT-3′,5′-TTAATGCCTTAGCAGCAG-3′, and 5′-CCTCCACTT CCTGAGAGAAC-3′.
5-Azacytidine Treatment. The treatment was performed as described previously (Veigl et al., 1998, Proc Natl Acad Sci USA 95: 8698-8702). Briefly, cells were treated for 24 h on day 2 and day 5 with 5-azacytidine (Sigma) at 1.5 μg/ml. The medium was changed 24 h after addition of the 5-azacytidine (i.e., on day 3 and day 6).

For `Nc1ncn([C@@H]2O[C@H](CO)[C@@H](O)[C@H]2O)c(=O)n1` [5-azacytidine], the “reactivation of SLC5A8 expression (cell lines reactivated of cell lines tested)” value was 6 of 8.
